{"source": "patent US7928138B2", "about": "“Marine actinomycete taxon for drug and fermentation product discovery” (Regents of the University of California, priority 2000, dated 2011)", "tested_on": "HCT-116 human colon carcinoma cell line", "assay": "Cytotoxicity against human colon carcinoma cell line by MTS assay", "assay_type": "cell-based", "details": "pure compound", "experimental": "Assay for the inhibition of growth of colon carcinoma cells and of ovarian cancer cells in vitro. The cytotoxicity of extracts from cells or culture media were assessed in vitro against the human colon carcinoma cell line HCT116 and the human ovarian carcinoma cell line A2780 by MTS assay. Cells were plated at 4,000 cells per well in 96 well microliter plates and, after 24 hours, the extract (dissolved in DMSO or other appropriate solvent) was added and serially diluted. The cells were incubated with the compound at 37° C. for 72 hours, then the tetrazolium dye MTS was added to a final concentration of 333 μg/ml and the electron coupling agent phenazine methosulfate was added to a final concentration of 25 μM. Once reduced, MTS is converted into a […] blue crystal formazan and that was read at an absorbance at 490 nm with a microplate reader. As dead cells are unable to reduce MTS, the amount of formazan is correlated to the number of viable cells. The IC50, the drug concentration required to inhibit proliferation of 50% of the cells, was used as a measure of efficacy.", "data": [{"molecule": "C[C@@]12OC(=O)[C@]1([C@@H](O)[C@@H]1C=CCCC1)NC(=O)[C@@H]2CCCl", "note": "[salinosporamide A]", "values": [{"measurement": "IC50 against the HCT-116 human colon carcinoma cell line", "result": 0.01, "unit": "µg/mL"}]}]}
